Assay results published in US10508115B2, “Toll-like receptor 7 (TLR7) agonists having heteroatom-linked aromatic moieties, conjugates thereof, and methods and uses therefor” (BRISTOL-MYERS SQUIBB COMPANY, priority 2017, dated 2019).

system: interleukin 6 (IL-6); assay: Interleukin 6 induction assay in human whole blood; assay type: cell-based; conditions: 37° C. for 20 h, AlphaLISA, read-out: IL6 Induction (EC50)
Procedure: This example describes a method for assaying interleukin 6 induction by compounds disclosed in this specification.
Compounds diluted in DMSO were transferred to individual wells of a Matrix Technologies clear, V-bottom 384-well plate using ECHO acoustic liquid handling technology (25 nL per well). Human whole-blood samples (25 uL) were added to each well using a CyBio FeliX liquid handling instrument. The plate was shaken on a plate shaker for three min before incubating the reaction mixtures at 37° C. for 20 h. Basel RPMI 1640 medium (supplemented with L-glutamine) was then added to each well (25 uL per well) prior to liberating plasma from each sample by centrifugation (450×g, 5 min, ambient temperature). Treated plasma samples (3 uL) were subsequently transferred to individual wells of a white, shallow, 384-well ProxiPlate (Perkin Elmer) using the FeliX liquid handling instrument and their interleukin 6 levels were measured using AlphaLISA technology as described by the manufacturer, PerkinElmer. Data analyses software was used to determine compound EC50 values where the baseline was established using average DMSO values and 100% induction established using reference compound values at the highest concentration tested. EC50's can be determined with software such as Graphpad Prism™.

Going from CCCCOc1nc(N)c2nc(O)n(Cc3ccc(Oc4ccc(CO)cc4)cc3)c2n1 [Ia-01] to CCCCOc1nc(N)c2nc(O)n(Cc3ccc(Oc4ccc(CNCCO)cc4)cc3)c2n1 [Ia-06], the EC50 falls from 506 nM to 17.3 nM (29-fold). The second is the more potent here.

Compared with CCCCOc1nc(N)c2nc(O)n(Cc3ccc(Oc4ccc(CNC5CC5)cc4)cc3)c2n1 [Ia-03], CCCCOc1nc(N)c2nc(O)n(Cc3ccc(Oc4ccc(CNC5CCC5)cc4)cc3)c2n1 [Ia-04] is 1.7-fold lower in EC50: 17.6 nM for the first, 10.4 nM for the second.

First: CCCCOc1nc(N)c2nc(O)n(Cc3ccc(Oc4ccc(CNC5COC5)cc4)cc3)c2n1 [Ia-05]
Second: CCCCOc1nc(N)c2nc(O)n(Cc3ccc(Oc4ccc(CNC5COC5)cc4)nc3)c2n1 [Ib-05]
The EC50 of the first is 3.2-fold higher: 31 nM for the first, 9.57 nM for the second. The second is the more potent here.

CCCCOc1nc(N)c2nc(O)n(Cc3ccc(Oc4ccc(CNCCOC)cc4)cc3)c2n1 [Ia-07] and CCCCOc1nc(N)c2nc(O)n(Cc3ccc(Oc4ccc(CNCCOC)cc4)nc3)c2n1 [Ib-07] are within 1.5-fold of each other in EC50: 6.62 nM for the first, 5.81 nM for the second.

CCCCOc1nc(N)c2nc(O)n(Cc3ccc(Oc4ccc(CNCc5ccccc5)cc4)cc3)c2n1 [Ia-08] and CCCCOc1nc(N)c2nc(O)n(Cc3ccc(Oc4ccc(CNCCO)cc4)c(F)c3)c2n1 [Ie-06] are within 1.5-fold of each other in EC50: 24.3 nM for the first, 29 nM for the second.

First: CCCCOc1nc(N)c2nc(O)n(Cc3ccc(Oc4ccc(CO)cc4)nc3)c2n1 [Ib-01]
Second: CCCCOc1nc(N)c2nc(O)n(Cc3ccc(Oc4ccc(CNC)cc4)nc3)c2n1 [Ib-02]
The EC50 of the first is 3.5-fold higher: 104 nM for the first, 29.6 nM for the second. The second is the more potent here.

Compared with CCCCOc1nc(N)c2nc(O)n(Cc3ccc(Oc4ccc(CNC(C)C)cc4)nc3)c2n1 [Ib-03], CCCCOc1nc(N)c2nc(O)n(Cc3ccc(Oc4ccc(CNCC(C)C)cc4)nc3)c2n1 [Ib-12] is 2-fold lower in EC50: 7.5 nM for the first, 3.77 nM for the second.

Compared with CCCCOc1nc(N)c2nc(O)n(Cc3ccc(Oc4ccc(CNCCO)cc4)nc3)c2n1 [Ib-06], CCCCOc1nc(N)c2nc(O)n(Cc3ccc(Oc4ccc(CNCCC#N)cc4)nc3)c2n1 [Ib-16] is 7.9-fold higher in EC50: 10.7 nM for the first, 84.8 nM for the second.

CCCCOc1nc(N)c2nc(O)n(Cc3ccc(Oc4ccc(CNC5C6CC5C6)cc4)nc3)c2n1 (stereo not drawn) [Ib-09] and CCCCOc1nc(N)c2nc(O)n(Cc3ccc(Oc4ccc(CNC5CC5)cc4)nc3)c2n1 [Ib-17] are within 1.5-fold of each other in EC50: 5.91 nM for the first, 5.11 nM for the second.

First: CCCCOc1nc(N)c2nc(O)n(Cc3ccc(Oc4ccc(CNC5CC(F)(F)C5)cc4)nc3)c2n1 [Ib-10]
Second: CCCCOc1nc(N)c2nc(O)n(Cc3ccc(Oc4ccc(CNC5CCCC5)cc4)nc3)c2n1 [Ib-11]
The EC50 of the first is 1.8-fold higher: 14.3 nM for the first, 8.14 nM for the second. The second is the more potent here.

Going from CCCCOc1nc(N)c2nc(O)n(Cc3ccc(Oc4ccc(CNCC(F)F)cc4)nc3)c2n1 [Ib-13] to CCCCOc1nc(N)c2nc(O)n(Cc3ccc(Oc4ccc(CNCC(F)F)nc4)nc3)c2n1 [Id-06], the EC50 rises from 30.9 nM to 100 nM (3.2-fold). The first is the more potent here.

First: CCCCOc1nc(N)c2nc(O)n(Cc3ccc(Oc4ccc(CNCCS(C)(=O)=O)cc4)nc3)c2n1 [Ib-14]
Second: CCCCOc1nc(N)c2nc(O)n(Cc3ccc(Oc4ccc(CNCCS(C)(=O)=O)cc4)c(F)c3)c2n1 [Ie-07]
The EC50 of the first is 6.9-fold lower: 18.9 nM for the first, 130 nM for the second. The first is the more potent here.

First: CCCCOc1nc(N)c2nc(O)n(Cc3ccc(Oc4ccc(CNCC5CC5)cc4)nc3)c2n1 [Ib-15]
Second: CCCCOc1nc(N)c2nc(O)n(Cc3ccc(Oc4cccc(CNC5CCC5)n4)cc3)c2n1 [Ic-02]
The EC50 of the first is 4-fold higher: 64.7 nM for the first, 16.1 nM for the second. The second is the more potent here.

First: CCCCOc1nc(N)c2nc(O)n(Cc3ccc(Oc4cccc(CNCC(C)C)n4)cc3)c2n1 [Ic-01]
Second: CCCCOc1nc(N)c2nc(O)n(Cc3ccc(Oc4cccc(CNCCO)n4)cc3)c2n1 [Ic-05]
The EC50 of the first is 4.4-fold lower: 10.1 nM for the first, 44.2 nM for the second.

Going from CCCCOc1nc(N)c2nc(O)n(Cc3ccc(Oc4cccc(CNC5COC5)n4)cc3)c2n1 [Ic-03] to CCCCOc1nc(N)c2nc(O)n(Cc3ccc(Oc4cccc(CNCCOC)n4)cc3)c2n1 [Ic-06], the EC50 falls from 78 nM to 28 nM (2.8-fold). The second is the more potent here.

Compared with CCCCOc1nc(N)c2nc(O)n(Cc3ccc(Oc4cccc(CNCCC#N)n4)cc3)c2n1 [Ic-07], CCCCOc1nc(N)c2nc(O)n(Cc3ccc(Oc4ccc(CNCCO)nc4)nc3)c2n1 [Id-05] is 11-fold lower in EC50: 133 nM for the first, 12 nM for the second.

First: CCCCOc1nc(N)c2nc(O)n(Cc3ccc(Oc4ccc(CNCC(C)C)nc4)nc3)c2n1 [Id-01]
Second: CCCCOc1nc(N)c2nc(O)n(Cc3ccc(Oc4ccc(CNCCOC)nc4)nc3)c2n1 [Id-04]
The EC50 of the first is 2.2-fold higher: 28 nM for the first, 13 nM for the second. The second is the more potent here.

First: CCCCOc1nc(N)c2nc(O)n(Cc3ccc(Oc4ccc(CNC5CCC5)nc4)nc3)c2n1 [Id-02]
Second: CCCCOc1nc(N)c2nc(O)n(Cc3ccc(Oc4ccc(CNC5CCOCC5)nc4)nc3)c2n1 [Id-03]
The EC50 of the first is 1.8-fold higher: 25 nM for the first, 14 nM for the second.

CCCCOc1nc(N)c2nc(O)n(Cc3ccc(Oc4ccc(CN5CCOCC5)nc4)nc3)c2n1 [Id-07] and CCCCOc1nc(N)c2nc(O)n(Cc3ccc(Oc4ccc(CN5CCN(C)CC5)nc4)nc3)c2n1 [Id-08] are within 1.5-fold of each other in EC50: 15 nM for the first, 21 nM for the second.

Compared with CCCCOc1nc(N)c2nc(O)n(Cc3ccc(Oc4ccc(CNCC(C)C)cc4)c(F)c3)c2n1 [Ie-01], CCCCOc1nc(N)c2nc(O)n(Cc3ccc(Oc4ccc(CNCC(F)F)cc4)c(F)c3)c2n1 [Ie-04] is 18-fold higher in EC50: 26 nM for the first, 460 nM for the second.

First: CCCCOc1nc(N)c2nc(O)n(Cc3ccc(Oc4ccc(CNC5CCC5)cc4)c(F)c3)c2n1 [Ie-02]
Second: CCCCOc1nc(N)c2nc(O)n(Cc3ccc(Oc4ccc(CNC5CCOCC5)cc4)c(F)c3)c2n1 [Ie-08]
The EC50 of the first is 2.5-fold higher: 19 nM for the first, 7.6 nM for the second. The second is the more potent here.

Compared with CCCCOc1nc(N)c2nc(O)n(Cc3ccc(Oc4ccc(CN5CCC5)cc4)c(F)c3)c2n1 [Ie-03], CCCCOc1nc(N)c2nc(O)n(Cc3ccc(Oc4ccc(CN5CCOCC5)cc4)c(F)c3)c2n1 [Ie-09] is 13-fold higher in EC50: 19 nM for the first, 250 nM for the second.

Going from CCCCOc1nc(N)c2nc(O)n(Cc3ccc(Oc4ccc(CNCCOC)cc4)c(F)c3)c2n1 [Ie-05] to CCCCOc1nc(N)c2nc(O)n(Cc3ccc(Oc4ccc(CN5CCN(C)CC5)cc4)c(F)c3)c2n1 [Ie-10], the EC50 rises from 24 nM to 75 nM (3.1-fold). The first is the more potent here.

CCCCOc1nc(N)c2nc(O)n(Cc3ccc(Nc4ccc(CNCC(C)C)cc4)nc3)c2n1 [If-01] and CCCCOc1nc(N)c2nc(O)n(Cc3ccc(Nc4ccc(CNCC(F)F)cc4)nc3)c2n1 [If-05] are within 1.5-fold of each other in EC50: 24 nM for the first, 17 nM for the second.

CCCCOc1nc(N)c2nc(O)n(Cc3ccc(Nc4ccc(CNCCO)cc4)nc3)c2n1 [If-02] and CCCCOc1nc(N)c2nc(O)n(Cc3ccc(Nc4ccc(CNCCS(C)(=O)=O)cc4)nc3)c2n1 [If-09] are within 1.5-fold of each other in EC50: 72 nM for the first, 68 nM for the second.

Compared with CCCCOc1nc(N)c2nc(O)n(Cc3ccc(Nc4ccc(CNC5CCOCC5)cc4)nc3)c2n1 [If-03], CCCCOc1nc(N)c2nc(O)n(Cc3ccc(Nc4ccc(CNC5CCC5)cc4)nc3)c2n1 [If-04] is 5.6-fold lower in EC50: 14 nM for the first, 2.5 nM for the second. The second is the more potent here.

Going from CCCCOc1nc(N)c2nc(O)n(Cc3ccc(Nc4ccc(CN5CCCC5)cc4)nc3)c2n1 [If-06] to CCCCOc1nc(N)c2nc(O)n(Cc3ccc(Nc4ccc(CNCC(C)(C)O)cc4)nc3)c2n1 [If-07], the EC50 rises from 3.8 nM to 7.8 nM (2.1-fold).

system: IFN-α; assay: not given; conditions: fold less potent than corresponding purine-8-one compound; cited from earlier work

For CCCCOc1nc(N)c2c(n1)N(Cc1cccc(CN3CCCC3)c1)CC(=O)N2 [Vesatolimod, vesatolimod], the “potency less than that of the corresponding purine-8-one compound, as measured by IFN-α induction” value is listed as 100 ×.

biological target: human TLR7 (Homo sapiens (Human), UniProt Q9NYK1); assay: HEK-Blue TLR7 reporter assay (TLR7 agonist activity); assay type: cell-based; conditions: HEK-Blue TLR7 cells, SEAP reporter, 18 h treatment; read-out: TLR7 Agonism (EC50)
Procedure: This example describes a method for assaying TLR7 agonist activity of the compounds disclosed in this specification.
HEK-Blue™ TLR7 cells were added to each well of a 384-well tissue-culture plate (15,000 cells per well) and incubated 16-18 h at 37° C., 5% CO2. Compounds (100 nl) were dispensed into wells containing the HEK-Blue™ TLR cells and the treated cells were incubated at 37° C., 5% CO2. After 18 h treatment ten microliters of freshly-prepared Quanti-Blue™ reagent (Invivogen) was added to each well, incubated for 30 min (37° C., 5% CO2) and SEAP levels measured using an Envision plate reader (OD=620 nm).

human TLR7, sequence (Q9NYK1 27-1049): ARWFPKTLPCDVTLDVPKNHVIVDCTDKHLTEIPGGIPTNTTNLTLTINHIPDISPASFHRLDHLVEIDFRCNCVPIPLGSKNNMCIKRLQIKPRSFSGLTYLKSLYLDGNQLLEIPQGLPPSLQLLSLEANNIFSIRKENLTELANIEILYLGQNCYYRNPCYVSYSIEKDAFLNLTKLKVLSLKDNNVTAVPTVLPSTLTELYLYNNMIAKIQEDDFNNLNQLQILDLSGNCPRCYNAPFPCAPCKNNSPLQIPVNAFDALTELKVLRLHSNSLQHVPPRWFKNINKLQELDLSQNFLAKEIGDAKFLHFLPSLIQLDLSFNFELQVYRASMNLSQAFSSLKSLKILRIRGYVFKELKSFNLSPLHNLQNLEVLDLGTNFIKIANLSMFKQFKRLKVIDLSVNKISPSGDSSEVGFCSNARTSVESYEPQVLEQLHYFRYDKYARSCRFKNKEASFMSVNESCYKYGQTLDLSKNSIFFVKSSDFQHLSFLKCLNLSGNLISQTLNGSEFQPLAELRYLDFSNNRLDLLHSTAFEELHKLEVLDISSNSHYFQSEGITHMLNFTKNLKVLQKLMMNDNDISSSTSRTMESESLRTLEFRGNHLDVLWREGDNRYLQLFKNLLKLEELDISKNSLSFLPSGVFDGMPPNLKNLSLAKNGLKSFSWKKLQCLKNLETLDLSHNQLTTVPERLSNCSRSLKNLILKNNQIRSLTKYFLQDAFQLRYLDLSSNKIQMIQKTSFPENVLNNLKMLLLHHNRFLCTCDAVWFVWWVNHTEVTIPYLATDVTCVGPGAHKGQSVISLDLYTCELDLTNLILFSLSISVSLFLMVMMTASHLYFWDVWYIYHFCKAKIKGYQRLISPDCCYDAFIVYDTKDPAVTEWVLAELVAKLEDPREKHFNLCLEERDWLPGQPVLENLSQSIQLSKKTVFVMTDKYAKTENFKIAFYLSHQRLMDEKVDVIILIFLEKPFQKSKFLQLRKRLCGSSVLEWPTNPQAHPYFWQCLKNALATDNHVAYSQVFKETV

Compared with CCCCOc1nc(N)c2nc(O)n(Cc3cccc(Oc4cccc(CNC5CCOCC5)c4)c3)c2n1 [IIa-04], CCCCOc1nc(N)c2nc(O)n(Cc3cccc(Oc4cccc(CNCc5ccncc5)c4)c3)c2n1 [IIa-11] is 3.8-fold higher in EC50: 113 nM for the first, 431 nM for the second.

Going from CCCCOc1nc(N)c2nc(O)n(Cc3ccc(Oc4ccc(CO)cc4)cc3)c2n1 [Ia-01] to CCCCOc1nc(N)c2nc(O)n(Cc3ccc(Oc4ccc(CNC)cc4)cc3)c2n1 [Ia-02], the EC50 falls from 14 nM to 1.3 nM (11-fold). The second is the more potent here.

Compared with CCCCOc1nc(N)c2nc(O)n(Cc3ccc(Oc4ccc(CNCCOC)cc4)cc3)c2n1 [Ia-07], CCCCOc1nc(N)c2nc(O)n(Cc3ccc(Oc4ccc(CNCCOC)cc4)nc3)c2n1 [Ib-07] is 2.1-fold lower in EC50: 1.3 nM for the first, 0.62 nM for the second. The second is the more potent here.

CCCCOc1nc(N)c2nc(O)n(Cc3ccc(Oc4ccc(CNCCO)cc4)nc3)c2n1 [Ib-06] and CCCCOc1nc(N)c2nc(O)n(Cc3ccc(Oc4ccc(CNC5CC5)cc4)nc3)c2n1 [Ib-17] are within 1.5-fold of each other in EC50: 0.91 nM for the first, 0.83 nM for the second.

First: CCCCOc1nc(N)c2nc(O)n(Cc3ccc(Oc4cccc(CNCCO)n4)cc3)c2n1 [Ic-05]
Second: CCCCOc1nc(N)c2nc(O)n(Cc3ccc(Oc4cccc(CNCCOC)n4)cc3)c2n1 [Ic-06]
The EC50 of the first is 3.2-fold lower: 0.871 nM for the first, 2.82 nM for the second.

Work on CCCCOc1nc(N)c2nc(O)n(Cc3ccc(Oc4ccc(CNCCS(C)(=O)=O)cc4)c(F)c3)c2n1 [Ie-07] yielded an EC50 of 1.71 nM.
